Converted amounts (≈) assume the structure as drawn.
What was measured:
[1] = system: human rhinovirus type 1B (HRV 1B, B632); experiment: Anti-rhinovirus activity (MTT), HRV1B; format: cell-based; design: Anti-Rhinovirus activity, HRV1B: unit not given here
HRV 2 (HGP) = experiment: Anti-rhinovirus activity (MTT), HRV2; format: cell-based, human rhinovirus; design: Anti-Rhinovirus activity, HRV2: unit not given here
HRV 89 (41617-Gallo) = experiment: Anti-rhinovirus activity (MTT), HRV89; format: cell-based, human rhinovirus; design: Anti-Rhinovirus activity, HRV89: unit not given here
[2] = Cytotoxicity (MTT, without virus), HeLa(Ohio); settings: human, HeLa (Ohio strain) cells (uninfected)
[3] = system: Poliovirus type 1 (Polio 1, Sabin); experiment: microbe, parasite or virus in culture; format: cell-based
[4] = system: echovirus type 11 (Echo 11, Gregory); experiment: In vitro anti-picornavirus activity (MTT), Echo 11; format: cell-based; settings: HeLa-S3 cells, MTT method, 37° C.
[5] = system: coxsackievirus type A7 (CA7); experiment: In vitro anti-picornavirus activity (MTT), CA7; format: cell-based; settings: HeLa-S3 cells, MTT method, 37° C.
[6] = system: coxsackievirus type B4 (CB4,JVB); experiment: In vitro anti-picornavirus activity (MTT), CB4; format: cell-based; settings: HeLa cells, MTT method, 37° C.
HRV1A (E28) = experiment: Anti-rhinovirus activity (MTT), HRV1A; format: cell-based, human rhinovirus; design: Anti-Rhinovirus activity, HRV1A: unit not given here; settings: for IC50 HRV 1A: HeLa (Ohio strain) cells, MTT method, 33° C.
HRV14 (1059) = experiment: Anti-rhinovirus activity (MTT), HRV14; format: cell-based, human rhinovirus; design: Anti-Rhinovirus activity, HRV14: unit not given here; settings: for IC50 HRV 14: HeLa (Ohio strain) cells, MTT method, 33° C.
HRV3(FEB) = experiment: Anti-rhinovirus spectrum (MTT), HRV3; format: cell-based, human rhinovirus; design: Anti-Rhinovirus activity, HRV3: unit not given here; settings: HRV3
HRV5 = experiment: Anti-rhinovirus spectrum (MTT), HRV5; format: cell-based, human rhinovirus; design: Anti-Rhinovirus activity, HRV5: unit not given here; settings: HRV5
HRV8(MRH) = experiment: Anti-rhinovirus spectrum (MTT), HRV8; format: cell-based, human rhinovirus; design: Anti-Rhinovirus activity, HRV8: unit not given here; settings: HRV8
HRV10 (204-CV14) = experiment: Anti-rhinovirus spectrum (MTT), HRV10; format: cell-based, human rhinovirus; design: Anti-Rhinovirus activity, HRV10: unit not given here; settings: HRV10
HRV13 (353) = experiment: Anti-rhinovirus spectrum (MTT), HRV13; format: cell-based, human rhinovirus; design: Anti-Rhinovirus activity, HRV13: unit not given here; settings: HRV13
HRV16 (11757) = experiment: Anti-rhinovirus spectrum (MTT), HRV16; format: cell-based, human rhinovirus; design: Anti-Rhinovirus activity, HRV16: unit not given here; settings: HRV16
HRV21 (47) = experiment: Anti-rhinovirus spectrum (MTT), HRV21; format: cell-based, human rhinovirus; design: Anti-Rhinovirus activity, HRV21: unit not given here; settings: HRV21
HRV29 (5582) = experiment: Anti-rhinovirus spectrum (MTT), HRV29; format: cell-based, human rhinovirus; design: Anti-Rhinovirus activity, HRV29: unit not given here; settings: HRV29
HRV31 (41F) = experiment: Anti-rhinovirus spectrum (MTT), HRV31; format: cell-based, human rhinovirus; design: Anti-Rhinovirus activity, HRV31: unit not given here; settings: HRV31
HRV32 (363) = experiment: Anti-rhinovirus spectrum (MTT), HRV32; format: cell-based, human rhinovirus; design: Anti-Rhinovirus activity, HRV32: unit not given here; settings: HRV32
HRV33 (1200) = experiment: Anti-rhinovirus spectrum (MTT), HRV33; format: cell-based, human rhinovirus; design: Anti-Rhinovirus activity, HRV33: unit not given here; settings: HRV33
HRV36 (342H) = experiment: Anti-rhinovirus spectrum (MTT), HRV36; format: cell-based, human rhinovirus; design: Anti-Rhinovirus activity, HRV36: unit not given here; settings: HRV36
HRV39 (209) = experiment: Anti-rhinovirus spectrum (MTT), HRV39; format: cell-based, human rhinovirus; design: Anti-Rhinovirus activity, HRV39: unit not given here; settings: HRV39
HRV41 (56110) = experiment: Anti-rhinovirus spectrum (MTT), HRV41; format: cell-based, human rhinovirus; design: Anti-Rhinovirus activity, HRV41: unit not given here; settings: HRV41
HRV50(A2#58) = experiment: Anti-rhinovirus spectrum (MTT), HRV50; format: cell-based, human rhinovirus; design: Anti-Rhinovirus activity, HRV50: unit not given here; settings: HRV50
HRV61 (6669-CV39) = experiment: Anti-rhinovirus spectrum (MTT), HRV61; format: cell-based, human rhinovirus; design: Anti-Rhinovirus activity, HRV61: unit not given here; settings: HRV61
[7] = system: clinical isolate (89229T); experiment: microbe, parasite or virus in culture; format: cell-based, human rhinovirus; design: Anti-Rhinovirus activity, Clinical isolated strain: unit not given here; settings: Clinical isolated strain
HeLa cells = experiment: Cytotoxicity (MTT, without virus), HeLa; settings: HeLa, no virus, incubated for 4 days
HeLa-S3 cells = experiment: Cytotoxicity (MTT, without virus), HeLa-S3; settings: HeLa-S3, no virus, incubated for 4 days
HeLa (Ohio strain)cells = experiment: Cytotoxicity (MTT, without virus), HeLa(Ohio); settings: HeLa(Ohio), no virus, incubated for 4 days
[8] = HeLa (Ohio strain) cells, MTT method, 33° C.

Row | SMILES | IC50 Polio 1 [3] | IC50 Echo 11 [4] | IC50 CA7 [5] | IC50 CB4 [6] | Anti-Rhinovirus activity, HRV1A (HRV1A (E28)) | IC50 HRV 1A (HRV1A (E28)) | Anti-Rhinovirus activity, HRV1B ([1]; HRV1B) | IC50 HRV1B [1, 8] | Anti-Rhinovirus activity, HRV2 (HRV 2 (HGP); HRV2) | IC50 HRV2 (HRV 2 (HGP); [8]) | Anti-Rhinovirus activity, HRV14 (HRV14 (1059)) | IC50 HRV 14 (HRV14 (1059)) | Anti-Rhinovirus activity, HRV89 (HRV 89 (41617-Gallo); HRV89) | IC50 HRV89 (HRV 89 (41617-Gallo); [8]) | Anti-Rhinovirus activity, HRV3 (HRV3(FEB)) | Anti-Rhinovirus activity, HRV5 (HRV5) | Anti-Rhinovirus activity, HRV8 (HRV8(MRH)) | Anti-Rhinovirus activity, HRV10 (HRV10 (204-CV14)) | Anti-Rhinovirus activity, HRV13 (HRV13 (353)) | Anti-Rhinovirus activity, HRV16 (HRV16 (11757)) | other results
1 | Cc1c(-c2ccccc2)n(-c2ccc(Cl)cc2)c2ccc(C(C)C)cc2c1=O [Compound A324, 1-(4-chlorophenyl)-2-phenyl-3-methyl-6-isopropyl-1,4-dihydro-4-oxoquinoline] | – | – | – | – | – | – | – | – | – | – | – | – | – | – | – | – | – | – | – | – | IC50 ([1]; Human rhinovirus sp., HRV1B, HeLa (Ohio strain) cells, MTT method, 33° C., read-out: IC50 HRV1B): 0.53 µg/mL (≈ 1.37 µM); IC50 (HRV 2 (HGP); Human rhinovirus sp., HRV2, HeLa (Ohio strain) cells, MTT method, 33° C., read-out: IC50 HRV2): 0.12 µg/mL (≈ 0.309 µM); IC50 (HRV 89 (41617-Gallo); Human rhinovirus sp., HRV89, HeLa (Ohio strain) cells, MTT method, 33° C., read-out: IC50 HRV89): 0.046 µg/mL (≈ 0.119 µM); melting point: 233 to 235 °C; CC50 at 4 days [2]: > 1 µg/mL
2 | CCn1c2c(c(=O)c3cc(CC(C)C)ccc31)Cc1cc(OC)ccc1-2 [Compound B15] | 0.49 µg/mL (≈ 1.41 µM) | 0.27 µg/mL (≈ 0.777 µM) | 2.2 µg/mL (≈ 6.33 µM) | 1.9 µg/mL (≈ 5.47 µM) | >2.5 | >2.5 µg/mL | 0.36 | 0.36 µg/mL (≈ 1.04 µM) | 0.44 | 0.44 µg/mL (≈ 1.27 µM) | 0.84 | 0.84 µg/mL (≈ 2.42 µM) | 0.39 | 0.39 µg/mL (≈ 1.12 µM) | 1.1 | 0.39 | 0.38 | 1.1 | 0.18 | 1.2 | Anti-Rhinovirus activity, HRV21 (HRV21 (47)): 0.34; Anti-Rhinovirus activity, HRV29 (HRV29 (5582)): 0.67; Anti-Rhinovirus activity, HRV31 (HRV31 (41F)): 0.38; Anti-Rhinovirus activity, HRV32 (HRV32 (363)): 0.65; Anti-Rhinovirus activity, HRV33 (HRV33 (1200)): 0.29; Anti-Rhinovirus activity, HRV36 (HRV36 (342H)): 0.32; Anti-Rhinovirus activity, HRV39 (HRV39 (209)): 0.46; Anti-Rhinovirus activity, HRV41 (HRV41 (56110)): 0.18; Anti-Rhinovirus activity, HRV50 (HRV50(A2#58)): 0.28; Anti-Rhinovirus activity, HRV61 (HRV61 (6669-CV39)): 0.39; Anti-Rhinovirus activity, Clinical isolated strain [7]: 1.1; Cytotoxicity CC50 HeLa (HeLa cells): >2.5 µg/mL; Cytotoxicity CC50 HeLa-S3 (HeLa-S3 cells): >2.5 µg/mL; Cytotoxicity CC50 HeLa(Ohio) (HeLa (Ohio strain)cells): >2.5 µg/mL
3 | CCn1c2c(c(=O)c3cc(C(C)C)ccc31)Cc1cc(OC)c(C)cc1-2 [Compound B20] | 0.40 µg/mL (≈ 1.15 µM) | 0.28 µg/mL (≈ 0.806 µM) | 1.4 µg/mL (≈ 4.03 µM) | 0.60 µg/mL (≈ 1.73 µM) | >2.5 | >2.5 µg/mL | 0.23 | 0.23 µg/mL (≈ 0.662 µM) | 0.19 | 0.19 µg/mL (≈ 0.547 µM) | 0.51 | 0.51 µg/mL (≈ 1.47 µM) | 0.18 | 0.18 µg/mL (≈ 0.518 µM) | 0.50 | 0.23 | 0.29 | 0.42 | 0.13 | 0.44 | Anti-Rhinovirus activity, HRV21 (HRV21 (47)): 0.14; Anti-Rhinovirus activity, HRV29 (HRV29 (5582)): 0.44; Anti-Rhinovirus activity, HRV31 (HRV31 (41F)): 0.18; Anti-Rhinovirus activity, HRV32 (HRV32 (363)): 0.29; Anti-Rhinovirus activity, HRV33 (HRV33 (1200)): 0.097; Anti-Rhinovirus activity, HRV36 (HRV36 (342H)): 0.20; Anti-Rhinovirus activity, HRV39 (HRV39 (209)): 0.35; Anti-Rhinovirus activity, HRV41 (HRV41 (56110)): 0.12; Anti-Rhinovirus activity, HRV50 (HRV50(A2#58)): 0.18; Anti-Rhinovirus activity, HRV61 (HRV61 (6669-CV39)): 0.31; Anti-Rhinovirus activity, Clinical isolated strain [7]: 0.49; Cytotoxicity CC50 HeLa (HeLa cells): >2.5 µg/mL; Cytotoxicity CC50 HeLa-S3 (HeLa-S3 cells): >2.5 µg/mL; Cytotoxicity CC50 HeLa(Ohio) (HeLa (Ohio strain)cells): >2.5 µg/mL
4 | CCn1c2c(c(=O)c3cc(C(C)C)ccc31)Cc1cc(OC)c(OC)cc1-2 [Compound B22] | 0.54 µg/mL (≈ 1.49 µM) | 0.39 µg/mL (≈ 1.07 µM) | 1.9 µg/mL (≈ 5.23 µM) | 1.3 µg/mL (≈ 3.58 µM) | >5.9 | >5.9 µg/mL | 0.44 | 0.44 µg/mL (≈ 1.21 µM) | 0.50 | 0.55 µg/mL (≈ 1.51 µM) | 0.86 | 0.86 µg/mL (≈ 2.37 µM) | 0.36 | 0.36 µg/mL (≈ 0.99 µM) | 0.97 | 0.43 | 0.46 | 0.53 | 0.13 | 1.2 | Anti-Rhinovirus activity, HRV21 (HRV21 (47)): 0.18; Anti-Rhinovirus activity, HRV29 (HRV29 (5582)): 0.56; Anti-Rhinovirus activity, HRV31 (HRV31 (41F)): 0.14; Anti-Rhinovirus activity, HRV32 (HRV32 (363)): 0.19; Anti-Rhinovirus activity, HRV33 (HRV33 (1200)): 0.16; Anti-Rhinovirus activity, HRV36 (HRV36 (342H)): 0.25; Anti-Rhinovirus activity, HRV39 (HRV39 (209)): 0.46; Anti-Rhinovirus activity, HRV41 (HRV41 (56110)): 0.14; Anti-Rhinovirus activity, HRV50 (HRV50(A2#58)): 0.17; Anti-Rhinovirus activity, HRV61 (HRV61 (6669-CV39)): 0.34; Anti-Rhinovirus activity, Clinical isolated strain [7]: 0.43; Cytotoxicity CC50 HeLa (HeLa cells): >10 µg/mL; Cytotoxicity CC50 HeLa-S3 (HeLa-S3 cells): >10 µg/mL; Cytotoxicity CC50 HeLa(Ohio) (HeLa (Ohio strain)cells): >10 µg/mL
